Each block holds one compound with its values, some of them ahead of it.
Key:
[1] = Evaluation of the switching behaviour of ASHS systems (carboxylic acid/base/water) under air and 1 bar of CO2; assay type: physicochemical; settings: for Behaviour of the system: base NaOH; for Behaviour of the system after CO2 addition / pH under 1 bar of CO2 / pH under air: 20° C.; for Phase behaviour upon addition of 1 bar of CO2: base Jeffamine D-230, TEA, DMEA or 3DMAP, base:acid mole ratio 1:1, water:acid mass ratio 15:1 and other ratios; for Phase behaviour upon addition of CO2 / Phases under air: substoichiometric aqueous NaOH, 0.6 to 0.7 equivalents of base
Protocol: Base solutions were prepared by combining the desired base and water (mass for components measured in an analytical scale) into either a 10 or 25 mL graduated cylinder (containing a magnetic stir bar) depending on the final volume of the mixture obtained. The carboxylic acid (mass measured using an analytical balance prior to addition) being studied was added to the base solution, and the mixture was mixed with the help of a magnetic stir plate. The amount of base and water used were selected based on the acid:base:water ratio desired. Experiments were carried out using stoichiometric and substoichiometric amounts of the base relative to the number of mols of acid added. In addition, the quantity of water used was adjusted based on the acid:water mass ratio desired. A typical experiment would contain 1 g of the carboxylic acid; between 0.4 and 1 mol of base per mol of acid; and a water mass varying from 1 to 9.5 g.
During a typical experiment, CO2 would be added for approximately 2 h at atmospheric pressure. At the end of the 2 h, the sparge tube would be removed, and the number and volume of the phases obtained would be recorded. The pH was once again recorded. For mixtures with only 1 phase, the pH of that phase was recorded. While for mixtures with 2 phases, the pH of the aqueous phase was recorded.
In the systems in which the base:acid mole ratio and the water:acid mass ratio were being studied, a slight modification from this method was used. The acid being tested (1 g) was mixed with 1 g of water and the required amount of NaOH (based on the acid:base molar ratio desired) to prepare the mixture. […]
The base solution was then added to the carboxylic acid, and the next steps followed the procedure previously described.

[2] = CPPA-EPS mixture, limited by viscosity; 60° C.
[3] = base 3DMAP, base:acid mole ratio 0.45:1, H2O:acid mass ratio 2.5:1
[4] = base DMEA, base:acid mole ratio 0.50:1, H2O:acid mass ratio 2.5:1
[5] = base Jeffamine D-230 (two moles acid per mole D-230), H2O:acid mass ratio 12:1, 1 bar CO2, partial = acid recovered smaller than mass added
[6] = base Jeffamine D-230 (two moles acid per mole D-230), H2O:acid mass ratio 12:1
[7] = base Jeffamine D-230 (two moles acid per mole D-230), H2O:acid mass ratio 15:1, 1 bar CO2, partial = acid recovered smaller than mass added
[8] = base Jeffamine D-230 (two moles acid per mole D-230), H2O:acid mass ratio 15:1
[9] = base MDEA, base:acid mole ratio 0.50:1, H2O:acid mass ratio 2.5:1
[10] = carboxylic acid:H2O mass ratio 1:2.5, carboxylic acid:NaOH mol ratio 1:0.8
[11] = base TEA, base:acid mole ratio 0.40:1, H2O:acid mass ratio 2.5:1
[12] = base 3DMAP, base:acid mole ratio 0.55:1, H2O:acid mass ratio 2.5:1
[13] = base DMEA, base:acid mole ratio 0.60:1, H2O:acid mass ratio 2.5:1
[14] = base Jeffamine D-230 (two moles acid per mole D-230), H2O:acid mass ratio 1:1-9.5:1
[15] = base MDEA, base:acid mole ratio 0.65:1, H2O:acid mass ratio 2.5:1
[16] = base TEA, MDEA, DMEA or 3-DMAP, base:acid mol ratio 1:1, H2O:acid mass ratio 12:1-15:1
[17] = base TEA, base:acid mole ratio 0.65:1, H2O:acid mass ratio 2.5:1
[18] = base 3DMAP, base:acid mole ratio 0.60:1, H2O:acid mass ratio 2.5:1
[19] = base DMEA, base:acid mole ratio 0.55:1, H2O:acid mass ratio 2.5:1
[20] = base MDEA, base:acid mole ratio 0.55:1, H2O:acid mass ratio 2.5:1
[21] = base TEA, base:acid mole ratio 0.60:1, H2O:acid mass ratio 2.5:1

SMILES: CCCCC/C=C\C/C=C\CCCCCCCC(=O)O [Linoleic acid, linoleic acid]
Behaviour of the system ([1]; carboxylic acid:H2O mass ratio 1:5, carboxylic acid:NaOH mol ratio 1:1): Biphasic under air

SMILES: CCCCCCCCC(CCCCCC)C(=O)O (centres unmarked) [2-hexyldecanoic acid]
Behaviour of the system ([1]; carboxylic acid:H2O mass ratio 1:12, carboxylic acid:NaOH mol ratio 1:1): Biphasic under air

SMILES: CCCCCC(=O)O [Hexanoic acid, hexanoic acid]
Behaviour of the system ([1]; carboxylic acid:H2O mass ratio 2:1, carboxylic acid:NaOH mol ratio 1:0.6): Monophasic under

SMILES: O=C(O)CCC1CCCC1 [CPPA, 3-cyclopentylpropionic acid]
Behaviour of the system after CO2 addition ([1]; base 3DMAP, base:acid mole ratio 0.45:1, H2O:acid mass ratio 2.5:1, 1 bar CO2, threshold 50 vol % recovered): Phase separation above 50
pH under 1 bar of CO2 [1, 3]: 6.02
pH under air [1, 3]: 6.06
Behaviour of the system after CO2 addition ([1]; base DMEA, base:acid mole ratio 0.50:1, H2O:acid mass ratio 2.5:1, 1 bar CO2): No phase separation
pH under 1 bar of CO2 [1, 4]: 6.25
pH under air [1, 4]: 6.22
Behaviour of the system after CO2 addition [1, 5]: No phase separation
pH under 1 bar of CO2 [1, 6]: 6.55
pH under air [1, 6]: 7.00
Behaviour of the system after CO2 addition [1, 7]: No phase separation
pH under 1 bar of CO2 [1, 8]: 6.45
pH under air [1, 8]: 6.94
Phase behaviour upon addition of 1 bar of CO2 ([1]; MDEA): no phase separation was observed
Behaviour of the system after CO2 addition ([1]; base MDEA, base:acid mole ratio 0.50:1, H2O:acid mass ratio 2.5:1, 1 bar CO2): No phase separation
pH under 1 bar of CO2 [1, 9]: 6.23
pH under air [1, 9]: 6.16
Behaviour of the system ([1]; 2:1 H2O:acid mass ratio, 1 bar CO2, narrow range of base:acid ratio): successful switchable behaviour
Behaviour of the system [1, 10]: Switchable
Behaviour of the system after CO2 addition ([1]; base TEA, base:acid mole ratio 0.40:1, H2O:acid mass ratio 2.5:1, 1 bar CO2): No phase separation
pH under 1 bar of CO2 [1, 11]: 6.04
pH under air [1, 11]: 5.98
Phase behaviour upon addition of CO2 [1]: phase separation was observed
Phases under air [1]: one phase
maximum polymer (EPS) loading attained in the carboxylic acid [2]: 50 wt %

SMILES: CCCCCCCC(=O)O [Octanoic acid, octanoic acid, reference compound]
Behaviour of the system after CO2 addition ([1]; base 3DMAP, base:acid mole ratio 0.55:1, H2O:acid mass ratio 2.5:1, 1 bar CO2, threshold 50 vol % recovered): Phase separation below 50
pH under 1 bar of CO2 [1, 12]: 6.46
pH under air [1, 12]: 6.34
Behaviour of the system after CO2 addition ([1]; base DMEA, base:acid mole ratio 0.60:1, H2O:acid mass ratio 2.5:1, 1 bar CO2, threshold 50 vol % recovered): Phase separation below 50
pH under 1 bar of CO2 [1, 13]: 6.71
pH under air [1, 13]: 6.86
Behaviour of the system after CO2 addition ([1]; base Jeffamine D-230 (two moles acid per mole D-230), H2O:acid mass ratio 1:1-9.5:1, 1 bar CO2): No phase separation
pH under 1 bar of CO2 [1, 14]: 6.85-7.60
pH under air [1, 14]: 7.60-7.90
Behaviour of the system after CO2 addition [1, 7]: Partial phase separation^b
pH under 1 bar of CO2 [1, 8]: 6.70
pH under air [1, 8]: 7.55
Phase behaviour upon addition of 1 bar of CO2 ([1]; MDEA): no phase separation was observed
Behaviour of the system after CO2 addition ([1]; base MDEA, base:acid mole ratio 0.65:1, H2O:acid mass ratio 2.5:1, 1 bar CO2): No phase separation
pH under 1 bar of CO2 [1, 15]: 6.65
pH under air [1, 15]: 6.69
Behaviour of the system ([1]; carboxylic acid:H2O mass ratio 1:1.5 and 1:2.5, carboxylic acid:NaOH mol ratio 1:0.9): Switchable
Behaviour of the system after CO2 addition ([1]; base TEA, MDEA, DMEA or 3-DMAP, base:acid mol ratio 1:1, H2O:acid mass ratio 12:1-15:1, 1 bar CO2): No phase separation
pH under 1 bar of CO2 [1, 16]: 6.70-6.90
pH under air [1, 16]: 7.60-7.70
Behaviour of the system after CO2 addition ([1]; base TEA, base:acid mole ratio 0.65:1, H2O:acid mass ratio 2.5:1, 1 bar CO2): No phase separation
pH under 1 bar of CO2 [1, 17]: 6.75
pH under air [1, 17]: 6.68

SMILES: CCCC(CCC)C(=O)O [PPA, 2-propylpentanoic acid]
Behaviour of the system after CO2 addition ([1]; base 3DMAP, base:acid mole ratio 0.60:1, H2O:acid mass ratio 2.5:1, 1 bar CO2, threshold 50 vol % recovered): Phase separation above 50
pH under 1 bar of CO2 [1, 18]: 6.70
pH under air [1, 18]: 6.63
Behaviour of the system after CO2 addition ([1]; base DMEA, base:acid mole ratio 0.55:1, H2O:acid mass ratio 2.5:1, 1 bar CO2, threshold 50 vol % recovered): Phase separation above 50
pH under 1 bar of CO2 [1, 19]: 6.78
pH under air [1, 19]: 6.70
Behaviour of the system after CO2 addition [1, 5]: Partial phase separation
pH under 1 bar of CO2 [1, 6]: 6.84
pH under air [1, 6]: 7.86
Behaviour of the system after CO2 addition [1, 7]: Partial phase separation
pH under 1 bar of CO2 [1, 8]: 6.73
pH under air [1, 8]: 8.43
Phase behaviour upon addition of 1 bar of CO2 ([1]; MDEA): no phase separation was observed
Behaviour of the system after CO2 addition ([1]; base MDEA, base:acid mole ratio 0.55:1, H2O:acid mass ratio 2.5:1, 1 bar CO2, threshold 50 vol % recovered): Phase separation above 50
pH under 1 bar of CO2 [1, 20]: 6.69
pH under air [1, 20]: 6.59
Behaviour of the system [1, 10]: Switchable
Behaviour of the system after CO2 addition ([1]; base TEA, base:acid mole ratio 0.60:1, H2O:acid mass ratio 2.5:1, 1 bar CO2): No phase separation
pH under 1 bar of CO2 [1, 21]: 6.72
pH under air [1, 21]: 6.51
Phase behaviour upon addition of CO2 [1]: phase separation was observed
Phases under air [1]: one phase

SMILES: CC(C(=O)O)c1ccccc1 (centres unmarked) [2-phenylpropionic acid]
Behaviour of the system ([1]; carboxylic acid:H2O mass ratio 1:2.5, carboxylic acid:NaOH mol ratio 1:0.5 and 1:0.6): Monophasic under

Results, then the compound that gave them:

Behaviour of the system ([1]; carboxylic acid:H2O mass ratio 1:2.5, carboxylic acid:NaOH mol ratio 1:0.6): Monophasic under
SMILES: CC(C)C(=O)O [Isobutyric acid, isobutyric acid]

Behaviour of the system ([1]; carboxylic acid:H2O mass ratio 1:2.5, carboxylic acid:NaOH mol ratio 1:1): Switchable
SMILES: C=CCCCCCCCCC(=O)O [10-undecenoic acid]

Behaviour of the system ([1]; carboxylic acid:H2O mass ratio 1:2.5, carboxylic acid:NaOH mol ratio 1:0.7): Switchable
SMILES: CCCCCCCCC(=O)O [Nonanoic acid, nonanoic acid]

Behaviour of the system ([1]; carboxylic acid:H2O mass ratio 1:10, carboxylic acid:NaOH mol ratio 1:1): Biphasic under air
SMILES: CCCCCCCC/C=C\CCCCCCCC(=O)O [Oleic acid, oleic acid]
